Results: article PMC3064895 (Cancer Chemotherapy and Pharmacology, 2010)
Where “and” joins values, the source holds several entries; their conditions need not be identical. Equal entries are not always repeated.

Columns and labels:
Format in all cases: in vivo, patients with advanced cancer
[1] = Left ventricular ejection fraction; details: for Mean (SD) change from baseline in LVEF(%): sorafenib 400 mg bid
[2] = QT/QTc interval on 12-lead Holter ECG
[3] = Supine blood pressure and heart rate; details: for Mean (SD) maximal change from baseline in supine HR / Mean (SD) maximal change from baseline in supine diastolic BP / Mean (SD) maximal change from baseline in supine systolic BP: over 12-h period
[4] = 2 h post-dose, Day 1 of cycle 2
[5] = 4 h post-dose, Day 1 of cycle 2
[6] = 6 h post-dose, Day 1 of cycle 2
[7] = 8 h post-dose, Day 1 of cycle 2
[8] = 12 h post-dose, Day 1 of cycle 2
[9] = at t max, Day 1 of cycle 2, listed as Sorafenib
[10] = over 12-h period, Day 1 of cycle 2
[11] = over 12-h period, Day 1 of cycle 2, listed as Sorafenib
[12] = Day 1 of cycle 2, listed as Sorafenib

In the case of `CNC(=O)c1cc(Oc2ccc(NC(=O)Nc3ccc(Cl)c(C(F)(F)F)c3)cc2)ccn1` [sorafenib], the “LVEF measurement, individual patient” value ([1]; RCC patient with diabetes (baseline 67%), Day 1 of cycle 3, MUGA scan) is reported as 42.2%, the “LVEF measurement, individual patient” value ([1]; RCC patient with diabetes (baseline 67%), repeat MUGA scan (+16 days)) is reported as 50% and the “Mean (SD) change from baseline in LVEF(%)” value ([1]; primary analysis population, Day 1 of cycle 3 (after 2 cycles)) is reported as −0.8 (±8.6) LVEF(%) and −0.8 LVEF(%). For the same compound, the “Mean (SD) change from baseline in LVEF(%)” value ([1]; primary analysis population, Day 1 of cycle 3 (after 2 cycles), listed as Sorafenib) was −0.8 (8.6) LVEF(%), the “Mean (SD) change from baseline in LVEF(%)” value ([1]; primary analysis population, Day 1 of cycle 5 (after 4 cycles)) was −1.2 (±7.8) LVEF(%) and −1.2 LVEF(%) and the “Mean (SD) change from baseline in LVEF(%)” value ([1]; primary analysis population, Day 1 of cycle 5 (after 4 cycles), listed as Sorafenib) was −1.2 (7.8) LVEF(%). The “Patients with decrease from baseline of ≥10 LVEF(%)” value ([1]; primary group, after 2 cycles) was 12.9% and 13%, the “Patients with decrease from baseline of ≥10 LVEF(%)” value ([1]; primary group, after 4 cycles) was 4% and the “Mean decline in LVEF(%)” value ([1]; primary patient group (n = 24), after 4 cycles) was 1.2 LVEF(%). For the same compound, the “Mean (SD) change from baseline in LVEF(%)” value ([1]; secondary analysis population, Day 1 of cycle 3 (after 2 cycles)) was −1.0 (8.5) LVEF(%), the “Mean (SD) change from baseline in LVEF(%)” value ([1]; secondary analysis population, Day 1 of cycle 5 (after 4 cycles)) was −1.4 (9.4) LVEF(%) and the “Patients with decrease from baseline of ≥10 LVEF(%)” value ([1]; secondary group, after 2 cycles) was 12.0%. For the same compound, the “Patients with decrease from baseline of ≥10 LVEF(%)” value ([1]; secondary group, after 4 cycles) was 7.1%, the “Mean decline in LVEF(%)” value ([1]; secondary patient group (n = 14), after 4 cycles) was 1.4 LVEF(%) and the “Mean decline in LVEF(%)” value ([1]; secondary patient group (n = 25), after 2 cycles) was 1.0 LVEF(%). For the same compound, the “Largest individual decrease in ejection fraction” value ([1]; single patient without clinical signs of CHF) was −24.8 LVEF[%], the “LVEF measurement, individual patient” value ([1]; thymic cancer patient (baseline 72%), repeat ECHO scan (+3 days)) was 60–65% and the “Mean (SD) change from baseline in QTcB” value [2, 4] was 0.5 (18.0) ms. The “Mean (SD) change from baseline in QTcB” value [2, 5] was 2.0 (20.2) ms, the “Mean (SD) change from baseline in QTcB” value [2, 6] was 1.6 (17.3) ms and the “Mean (SD) change from baseline in QTcB” value [2, 7] was 0.2 (16.1) ms. For the same compound, the “Mean (SD) change from baseline in QTcB” value [2, 8] was 2.9 (17.2) ms, the “Mean (SD) change from baseline in QTcB” value ([2]; Pre-dose, Day 1 of cycle 2) was 1.1 (18.3) ms and the “Patients with a QTcB or QTcF value >500 ms” value ([2]; at any time during the study) was “No patient”. For the same compound, the “Mean (SD) change from baseline in QTcB” value ([2]; at t max, Day 1 of cycle 2) was 4.2 ms and 4 ms, the “Mean (SD) change from baseline in QTcB” value [2, 9] was 4.2 (19.2) ms and the “Patients with a ≥60-ms change from baseline in QTcB or QTcF” value ([2]; during the study) was “no patient”. The “Mean (SD) maximal change from baseline in QT” value [2, 10] was 32.9 (24.1) ms, the “Mean (SD) maximal change from baseline in QTcB” value [2, 10] was 16.4 ms and 16 ms and the “Mean (SD) maximal change from baseline in QTcF” value [2, 10] was 19.8 ms and 20 ms. For the same compound, the “Mean (SD) maximal change from baseline in QTcB” value [2, 11] was 16.4 (15.3) ms, the “Mean (SD) maximal change from baseline in QTcF” value [2, 11] was 19.8 (14.4) ms and the “Mean increases from baseline by time point, QTcB (range)” value ([2]; over 12 h, after 1 cycle) was 0.2 to 2.9 ms. The “Mean increases from baseline by time point, QTcF (range)” value ([2]; over 12 h, after 1 cycle) was 4.2 to 5.8 ms, the “QTcF value, individual patient” value ([2]; patient with maximum prolongation, after 1 cycle, baseline 396.7 ms) was 446.3 ms and the “Mean (SD) change from baseline in supine HR” value [3, 4] was −5.4 (9.2) bpm. For the same compound, the “Mean (SD) change from baseline in supine HR” value ([3]; 2 h post-dose, Day 1 of cycle 5) was −0.03 (7.1) bpm, the “Mean (SD) change from baseline in supine HR” value [3, 5] was −4.0 (8.8) bpm and the “Mean (SD) change from baseline in supine HR” value ([3]; 4 h post-dose, Day 1 of cycle 5) was 0.1 (9.2) bpm. The “Mean (SD) change from baseline in supine HR” value [3, 6] was −6.0 bpm, the “Mean (SD) change from baseline in supine HR” value ([3]; 6 h post-dose, Day 1 of cycle 2, listed as Sorafenib) was −6.0 (8.9) bpm and the “Mean (SD) change from baseline in supine HR” value ([3]; 6 h post-dose, Day 1 of cycle 5) was 0 (8.7) bpm. The “Mean (SD) change from baseline in supine HR” value [3, 7] was −4.2 (11.3) bpm, the “Mean (SD) change from baseline in supine HR” value ([3]; 8 h post-dose, Day 1 of cycle 5) was 0.7 (8.6) bpm and the “Mean (SD) change from baseline in supine HR” value [3, 8] was −5.8 (13.3) bpm. For the same compound, the “Mean (SD) change from baseline in supine HR” value ([3]; 12 h post-dose, Day 1 of cycle 5) was 1.6 (10.0) bpm, the “Patients with BP ≥150/90 mm Hg at t max” value ([3]; Day 1 of cycle 5, sorafenib 400 mg bid) was 2 n (%) and the “Mean (SD) change from baseline in supine HR” value ([3]; Pre-dose, Day 1 of cycle 2) was −4.4 (8.1) bpm. For the same compound, the “Mean (SD) change from baseline in supine HR” value ([3]; Pre-dose, Day 1 of cycle 5) was −2.9 (10.0) bpm, the “Patients who exceeded 150/90 mm Hg (both systolic and diastolic)” value ([3]; after 1 cycle) was “Four” and the “Patients who exceeded a systolic reading of 150 mm Hg only” value ([3]; after 1 cycle) was 4 patients. The “Patients with a diastolic reading surpassing 90 mm Hg only” value ([3]; after 1 cycle) was 2 patients, the “Patients who had become hypertensive” value ([3]; after 1 cycle (6% at baseline)) was “Thirty-two” and the “Increase in both systolic and diastolic BP at t max” value ([3]; after both 1 and 4 cycles) was 11–12 mm Hg. The Patients hypertensive ([3]; at cycle 4) was 13%, the “Mean (SD) change from baseline in supine HR” value ([3]; at t max, Day 1 of cycle 2) was −6.6 bpm and the “Mean (SD) change from baseline in supine HR” value [3, 9] was −6.6 (10.6) bpm. For the same compound, the “Mean (SD) change from baseline in supine HR” value ([3]; at t max, Day 1 of cycle 5) was −3.3 bpm, the “Mean (SD) change from baseline in supine HR” value ([3]; at t max, Day 1 of cycle 5, listed as Sorafenib) was −3.3 (7.3) bpm and the “Patients who started receiving antihypertensive medications during treatment” value ([3]; during treatment with sorafenib) was “Three”. The “Mean (SD) maximal change from baseline in supine HR” value ([3]; Day 1 of cycle 2) was 2.9 (±8.2) bpm, the “Mean (SD) maximal change from baseline in supine diastolic BP” value ([3]; Day 1 of cycle 2) was 19.8 (±9.0) mm Hg and the “Mean (SD) maximal change from baseline in supine systolic BP” value ([3]; Day 1 of cycle 2) was 27.7 (±18.5) mm Hg. The “Mean (SD) maximal change from baseline in supine HR” value [3, 12] was 2.9 (8.2) bpm, the “Mean (SD) maximal change from baseline in supine diastolic BP” value [3, 12] was 19.8 (9.0) mm Hg and the “Mean (SD) maximal change from baseline in supine systolic BP” value [3, 12] was 27.7 (18.5) mm Hg. The “Mean (SD) maximal change from baseline in supine HR” value ([3]; Day 1 of cycle 5) was 8.3 (±6.8) bpm.
